Several values for one entry are separate records, joined by “and”; a condition that tells them apart may be missing. Equal values may be shown once. Read-outs that look alike come from different tables or passages of the source.
Legend:
[1] = Phase Ib trial of intermittent selumetinib: adverse events, DLT and MTD; type: in vivo
Excerpt: This was a multi-center, open-label, phase Ib study conducted at Columbia University Irving Medical Center (New York, NY), University of Texas MD Anderson Cancer Center (Houston, TX), and Memorial Sloan Kettering Cancer Center (New York, NY). […] Exploratory objectives included pharmacodynamic (PD) assessment of target inhibition of the MEK pathway.
The MTD was estimated using the time to event continual reassessment method (TITE-CRM) with a target DLT rate of 0.25 ([17]). TITE-CRM was used as it allows use of partial information before a complete follow-up is achieved and allows for a longer toxicity evaluation window beyond the first cycle to account for late onset toxicities. As a result, trials can be conducted in a continuous fashion. […] Based on prior clinical data, the estimated MTD prior to conduct of the trial was DL2.
Descriptive statistics were used to report baseline characteristics of the study population. The observed rate and estimated rate of DLT were reported for each dose level along with the 90% probability interval. The number and percentage of patients with adverse events were summarized taking the highest grade and reported by grade for AEs that were at least possibly related to treatment. AEs with at prevalence of least 10% were reported separately. The overall response rate (ORR) was defined as a confirmed complete response (CR) or partial response (PR) according to RECIST 1.1 criteria ([18]) and reported by dose level. […] PFS was measured from date of enrollment until the date of progression or death, whichever occurred first. OS was defined as the time from the date of registration to the date of death by any cause.
Toxicity was graded using National Cancer Institute Common Terminology Criteria for Adverse Events (CTCAE v. 4.0). For recurrent adverse events (AEs), the highest reported grade per event per patient was assessed. The DLT observation period was 8 weeks from the initiation of treatment.

pERK = assay: Pharmacodynamic analysis of serial tumor biopsies (immunoblot, densitometry); type: in vivo, human
Experimental: Serial tumor biopsies were collected from patients at baseline, on day 3, and between days 11 and 14. Flash-frozen specimens were lysed in RIPA lysis buffer. Equal amounts of protein were loaded on 4-20% PAGE gels (Invitrogen) and analyzed by immunoblotting using antibodies for pERK, ERK, cyclin D1 and α-tubulin (Cell Signaling). Signals from secondary antibodies were detected using ECL (Pierce) and autoradiography films. Densitometry analysis of each band was performed using Photoshop C6 and normalized to tubulin expression.

[2] = in vivo
Experimental: (§1) Non-compartmental analyses were performed on the data for day 1, 2, 15 and 17 using Winnonlin software (Phoenix Winnonlin 8.3.1.5014, Certara L.P., Princeton, NJ). […] Data were summarized per dose level and per occasion. Dose-exposure relationships were explored by plotting dose versus the various parameters. Accumulation was investigated using the AUC assessed at various days.

uveal melanoma = system: uveal melanoma; design: method as in PMID 22550165; conditions: ref [7], cited from earlier work
[3] = system: metastatic uveal melanoma; conditions: ref [10], cited from earlier work
clinical = conditions: human, in vivo
Experimental: as §1

[4] = cited from earlier work
[5] = related to study treatment, 29 patients, all dose levels

SMILES: Cn1cnc2c(F)c(Nc3ccc(Br)cc3Cl)c(C(=O)NOCCO)cc21 [selumetinib]
- increase of intermittent MTD over continuous dose MTD ([1]; 150 mg BID vs 75 mg BID): 100%
- patients requiring dose reduction for treatment-related toxicity ([1]; 29 patients, all dose levels): 21%
- patients who discontinued therapy due to toxicity ([1]; 29 patients, all dose levels): Five patients discontinued therapy due to toxicity
- patients with at least one treatment-related AE of any grade ([1]; 29 patients, all dose levels): All patients
- patients with grade 3 or higher treatment-related AE ([1]; 29 patients, all dose levels): 17%
- Observed DLTs ([1]; All dose levels, 29 patients): 5
- estimated probability of toxicity at the MTD ([1]; DL3 150 mg BID, 90% probability interval 16%-44%): 29%
- DLT Information ([1]; Dose Level 2 (125 mg BID)): • Grade 3 Hypertension • Grade 3 Abdominal pain
- Observed DLTs ([1]; Dose Level 2 (125 mg BID), 20 patients): 2/20 and 2
- DLT Information ([1]; Dose Level 3 (150 mg BID)): • Grade 3 Abdominal pain • Grade 3 AST elevation
- Observed DLTs ([1]; Dose Level 3 (150 mg BID), 5 patients): 2/5 and 2
- DLT Information ([1]; Dose Level 4 (175 mg BID)): • Grade 3 AST elevation
- Observed DLTs ([1]; Dose Level 4 (175 mg BID), 1 patient): 1/1 and 1
- most common grade 3 AE ([1]; all dose levels): abdominal pain
- treatment discontinuation associated with liver enzyme elevation ([1]; all dose levels): 2 n
- treatment discontinuation associated with retinopathy ([1]; all dose levels): 2 n
- patients who died within 30 days of treatment discontinuation ([1]; all from progression of disease): 4 patients
- Abdominal pain, All Grades [1, 5]: 12 (41%) patients (%)
- Abdominal pain, Grade 1 [1, 5]: 5 (17) n(%)
- Abdominal pain, Grade 2 [1, 5]: 4 (14) n(%)
- Abdominal pain, Grade 3 [1, 5]: 3 (10) n(%)
- Abdominal pain, Grade 4 [1, 5]: 0 n(%)
- Anemia, All Grades [1, 5]: 13 (45%) patients (%)
- Anemia, Grade 1 [1, 5]: 11 (38) n(%)
- Anemia, Grade 2 [1, 5]: 1 (3) n(%)
- Anemia, Grade 3 [1, 5]: 0 n(%)
- Anemia, Grade 4 [1, 5]: 1 (3) n(%)
- Constipation, All Grades [1, 5]: 10 (34%) patients (%)
- Constipation, Grade 1 [1, 5]: 8 (28) n(%)
- Constipation, Grade 2 [1, 5]: 2 (7) n(%)
- Constipation, Grade 3 [1, 5]: 0 n(%)
- Constipation, Grade 4 [1, 5]: 0 n(%)
- Decreased WBC, All Grades [1, 5]: 8 (28%) patients (%)
- Decreased WBC, Grade 1 [1, 5]: 5 (17) n(%)
- Decreased WBC, Grade 2 [1, 5]: 2 (7) n(%)
- Decreased WBC, Grade 3 [1, 5]: 1 (3) n(%)
- Decreased WBC, Grade 4 [1, 5]: 0 n(%)
- Diarrhea, All Grades [1, 5]: 16 (55%) patients (%)
- Diarrhea, Grade 1 [1, 5]: 14 (48) n(%)
- Diarrhea, Grade 2 [1, 5]: 2 (7) n(%)
- Diarrhea, Grade 3 [1, 5]: 0 n(%)
- Diarrhea, Grade 4 [1, 5]: 0 n(%)
- Fatigue, All Grades [1, 5]: 25 (86%) patients (%)
- Fatigue, Grade 1 [1, 5]: 19 (66) n(%)
- Fatigue, Grade 2 [1, 5]: 6 (21) n(%)
- Fatigue, Grade 3 [1, 5]: 0 n(%)
- Fatigue, Grade 4 [1, 5]: 0 n(%)
- Hypertension, All Grades [1, 5]: 14 (48%) patients (%)
- Hypertension, Grade 1 [1, 5]: 3 (10) n(%)
- Hypertension, Grade 2 [1, 5]: 9 (31) n(%)
- Hypertension, Grade 3 [1, 5]: 2 (7) n(%)
- Hypertension, Grade 4 [1, 5]: 0 n(%)
- Increased AST/ALT, All Grades [1, 5]: 12 (41%) patients (%)
- Increased AST/ALT, Grade 1 [1, 5]: 10 (34) n(%)
- Increased AST/ALT, Grade 2 [1, 5]: 0 n(%)
- Increased AST/ALT, Grade 3 [1, 5]: 2 (7) n(%)
- Increased AST/ALT, Grade 4 [1, 5]: 0 n(%)
- Nausea, All Grades [1, 5]: 17 (59%) patients (%)
- Nausea, Grade 1 [1, 5]: 12 (41) n(%)
- Nausea, Grade 2 [1, 5]: 5 (17) n(%)
- Nausea, Grade 3 [1, 5]: 0 n(%)
- Nausea, Grade 4 [1, 5]: 0 n(%)
- Pruritus, Grade 1 [1, 5]: 10 (34) n(%)
- Pruritus, Grade 2 [1, 5]: 0 n(%)
- Pruritus, Grade 3 [1, 5]: 0 n(%)
- Pruritus, Grade 4 [1, 5]: 0 n(%)
- Rash acneiform, All Grades [1, 5]: 19 (65%) patients (%)
- Rash acneiform, Grade 1 [1, 5]: 14 (48) n(%)
- Rash acneiform, Grade 2 [1, 5]: 5 (17) n(%)
- Rash acneiform, Grade 3 [1, 5]: 0 n(%)
- Rash acneiform, Grade 4 [1, 5]: 0 n(%)
- Retinopathy/Blurred Vision, All Grades [1, 5]: 8 (28%) patients (%)
- Retinopathy/Blurred Vision, Grade 1 [1, 5]: 8 (28) n(%)
- Retinopathy/Blurred Vision, Grade 2 [1, 5]: 0 n(%)
- Retinopathy/Blurred Vision, Grade 3 [1, 5]: 0 n(%)
- Retinopathy/Blurred Vision, Grade 4 [1, 5]: 0 n(%)
- Vomiting, All Grades [1, 5]: 8 (28%) patients (%)
- Vomiting, Grade 1 [1, 5]: 5 (17) n(%)
- Vomiting, Grade 2 [1, 5]: 3 (10) n(%)
- Vomiting, Grade 3 [1, 5]: 0 n(%)
- Vomiting, Grade 4 [1, 5]: 0 n(%)
- mean reduction in pERK expression (pERK; day 3 of first cycle (on treatment) vs baseline, n=9): 41.3%
- mean increase in pERK expression from day 3 (pERK; day 11-14, off-treatment window): 69.3%
- cases with at least partial pERK recovery (pERK; day 11-14 off treatment, of 9 patients): 7 cases
- AUC0-4h ([2]; human, 100 mg): 2903 ± 461 (6) h*ng/mL
- AUC0-8h ([2]; human, 100 mg): 4265 ± 628 (2) h*ng/mL
- CL/F ([2]; human, 100 mg): 20.9 ± 3.7 (2) L/h
- Cmax ([2]; human, 100 mg): 1453 ± 530 (6) ng/mL
- Tmax ([2]; human, 100 mg): 1.7 ± 0.5 (6) h
- t½ ([2]; human, 100 mg): 2.4 ± 0.3 (2) h
- AUC0-4h ([2]; human, 125 mg): 4270 ± 1470 (56) h*ng/mL
- AUC0-8h ([2]; human, 125 mg): 6042 ± 2210 (29) h*ng/mL
- CL/F ([2]; human, 125 mg): 18.7 ± 8.1 (26) L/h
- Cmax ([2]; human, 125 mg): 2115 ± 798 (56) ng/mL
- intra-patient coefficient of variation for AUC0-8h ([2]; human, 125 mg): 11.3%
- intra-patient coefficient of variation for Cmax ([2]; human, 125 mg): 25.3%
- t½ ([2]; human, 125 mg): 4.3 ± 5.7 (26) h
- AUC0-4h ([2]; human, 150 mg): 6073 ± 1540 (8) h*ng/mL
- AUC0-8h ([2]; human, 150 mg): 6683 ± 729 (4) h*ng/mL
- CL/F ([2]; human, 150 mg): 14.8 ± 7.6 (8) L/h
- Cmax ([2]; human, 150 mg): 3041 ± 1155 (8) ng/mL
- t½ ([2]; human, 150 mg): 7.9 ± 9.1 (3) h
- accumulation [2]: little to no accumulation
- median PFS (uveal melanoma; selumetinib 75 mg BID vs temozolomide or DTIC): 16 weeks
- patients achieving an objective radiographic response (uveal melanoma; selumetinib 75 mg BID): 14%
- median PFS ([3]; SELPAC, selumetinib 75 mg BID): 3.4 months
- ORR ([3]; SelPac, 77 patients): 4%
- median OS ([3]; SelPac, 77 patients): 10 months
- half-life (clinical): 4.3 h
- Tmax (clinical; po): ~1.7 h
- continuous dose MTD ([4]; continuous dosing schedule): 75 mg BID
- mean half-life ([4]; prior knowledge, no reference given): 5 to 8 h
